Laboratory results taken from ChEMBL document CHEMBL4346695, “Thiophenol-formaldehyde triazole causes apoptosis induction in ovary cancer cells and prevents tumor growth formation in mice model” (2019).
Activity calls are given as the source filed them. The calls are words filed in the database; no cut-off is given here.

Assays:
[1] = test system: Caov-3 cell line; assay: Antimetastasis activity against human Caov3 cells xenografted in BALB/c nude mouse assessed as reduction in vWF expression in intestinal lesions at 5 mg/kg, ip incubated for 1 hr post tumor implantation and measured after 20 days by DAB and hematoxylin staining based immunohistochemical analysis; assay type: functional, organism-based
[2] = test system: Caov-3 cell line; assay: Inhibition of metastasis in human Caov3 cells assessed as decrease in FAK activation level at 0.5 uM incubated for 48 hrs by Western blot analysis; assay type: functional, cell-based
[3] = test system: Caov-3 cell line; assay: Antimetastasis activity against human Caov3 cells xenografted in BALB/c nude mouse assessed as reduction of metastasis in spleen at 10 mg/kg, ip incubated for 1 hr post tumor implantation and measured after 20 days by H and E staining-based assay; assay type: functional, organism-based
[4] = test system: Caov-3 cell line; assay: Antimetastasis activity against human Caov3 cells xenografted in BALB/c nude mouse assessed as reduction in vWF expression in lungs lesions at 10 mg/kg, ip incubated for 1 hr post tumor implantation and measured after 20 days by DAB and hematoxylin staining based immunohistochemical analysis relative to control; assay type: functional; set-up: scale not given: the % may be the effect or the level left
[5] = test system: Caov-3 cell line; assay: Antimetastasis activity against human Caov3 cells xenografted in BALB/c nude mouse assessed as reduction in infiltration of macrophages in liver lesions at 10 mg/kg, ip incubated for 1 hr post tumor implantation and measured after 20 days by DAB and hematoxylin staining based immunohistochemical analysis relative to control; assay type: functional; set-up: scale not given: the % may be the effect or the level left
[6] = species: Homo sapiens; assay: Growth inhibition of human ES2 cells at 0.25 uM incubated for 48 hrs by MTT assay; assay type: functional
[7] = test system: Caov-3 cell line; assay: Induction of apoptosis in human Caov3 cells assessed as formation of apoptotic nuclei at 1.0 uM incubated for 48 hrs by Hoechst 33342 staining based fluorescent microscopic method relative to control; assay type: functional
[8] = test system: Caov-3 cell line; assay: Inhibition of metastasis in human Caov3 cells assessed as decrease in MMP2 expression level at 0.25 uM incubated for 48 hrs by Western blot analysis; assay type: functional, cell-based
[9] = test system: Caov-3 cell line; assay: Induction of Cell cycle arrest in human Caov3 cells assessed as accumulation at G0/G1 phase at 1 uM incubated for 48 hrs by propidium iodide staining based flow cytometric analysis (reference value: 57.77%); assay type: functional
[10] = test system: Caov-3 cell line; assay: Antimetastasis activity against human Caov3 cells xenografted in BALB/c nude mouse assessed as reduction in infiltration of macrophages in liver lesions at 5 mg/kg, ip incubated for 1 hr post tumor implantation and measured after 20 days by DAB and hematoxylin staining based immunohistochemical analysis; assay type: functional, organism-based
[11] = test system: Caov-3 cell line; assay: Antiinvasive activity in human Caov3 cells at 0.25 uM incubated for 48 hrs using hematoxylin by microscopy-based transwell assay; assay type: functional, cell-based
[12] = test system: Caov-3 cell line; assay: Antimetastasis activity against human Caov3 cells xenografted in BALB/c nude mouse assessed as reduction in vWF expression in liver lesions at 10 mg/kg, ip incubated for 1 hr post tumor implantation and measured after 20 days by DAB and hematoxylin staining based immunohistochemical analysis relative to control; assay type: functional; set-up: scale not given: the % may be the effect or the level left
[13] = test system: Caov-3 cell line; assay: Induction of Cell cycle arrest in human Caov3 cells assessed as accumulation at G2/M phase at 1.5 uM incubated for 48 hrs by propidium iodide staining based flow cytometric analysis (reference value: 22.68%); assay type: functional
[14] = test system: Caov-3 cell line; assay: Induction of Cell cycle arrest in human Caov3 cells assessed as accumulation at S phase at 1.5 uM incubated for 48 hrs by propidium iodide staining based flow cytometric analysis (reference value: 18.89%); assay type: functional
[15] = test system: Caov-3 cell line; assay: Inhibition of metastasis in human Caov3 cells assessed as decrease in MMP9 expression level at 0.5 uM incubated for 48 hrs by Western blot analysis; assay type: functional, cell-based
[16] = test system: Caov-3 cell line; assay: Induction of apoptosis in human Caov3 cells assessed as formation of apoptotic nuclei at 0.5 uM incubated for 48 hrs by Hoechst 33342 staining based fluorescent microscopic method relative to control; assay type: functional
[17] = test system: Caov-3 cell line; assay: Growth inhibition of human Caov3 cells at 2 uM incubated for 48 hrs by MTT assay relative to control; assay type: functional; conditions: Caov-3, 48 h, read-out: GI
[18] = test system: Caov-3 cell line; assay: Antiinvasive activity in human Caov3 cells at 0.5 uM incubated for 48 hrs using hematoxylin by microscopy-based transwell assay relative to control; assay type: functional
[19] = test system: Caov-3 cell line; assay: Antimetastasis activity against human Caov3 cells xenografted in BALB/c nude mouse assessed as reduction in vWF expression in peritoneal lesions at 5 mg/kg, ip incubated for 1 hr post tumor implantation and measured after 20 days by DAB and hematoxylin staining based immunohistochemical analysis; assay type: functional, organism-based
[20] = test system: Caov-3 cell line; assay: Induction of Cell cycle arrest in human Caov3 cells assessed as accumulation at G0/G1 phase at 1.5 uM incubated for 48 hrs by propidium iodide staining based flow cytometric analysis (reference value: 57.77%); assay type: functional
[21] = test system: Caov-3 cell line; assay: Induction of apoptosis in human Caov3 cells assessed as formation of apoptotic nuclei at 0.25 uM incubated for 48 hrs by Hoechst 33342 staining based fluorescent microscopic method relative to control; assay type: functional
[22] = test system: Caov-3 cell line; assay: Antiinvasive activity in human Caov3 cells at 1.5 uM incubated for 48 hrs using hematoxylin by microscopy-based transwell assay relative to control; assay type: functional
[23] = test system: Caov-3 cell line; assay: Antimetastasis activity against human Caov3 cells xenografted in BALB/c nude mouse assessed as reduction in vWF expression in liver lesions at 5 mg/kg, ip incubated for 1 hr post tumor implantation and measured after 20 days by DAB and hematoxylin staining based immunohistochemical analysis; assay type: functional, organism-based
[24] = test system: Caov-3 cell line; assay: Inhibition of metastasis in human Caov3 cells assessed as decrease in FAK phosphorylation level at 0.5 to 5.0 uM incubated for 48 hrs by Western blot analysis; assay type: functional, cell-based
[25] = test system: Caov-3 cell line; assay: Antiinvasive activity in human Caov3 cells at 1.0 uM incubated for 48 hrs using hematoxylin by microscopy-based transwell assay relative to control; assay type: functional
[26] = test system: Caov-3 cell line; assay: Induction of Cell cycle arrest in human Caov3 cells assessed as accumulation at G2/M phase at 2 uM incubated for 48 hrs by propidium iodide staining based flow cytometric analysis (reference value: 22.68%); assay type: functional
[27] = test system: Caov-4; assay: Growth inhibition of human Caov4 cells at 0.25 uM incubated for 48 hrs by MTT assay; assay type: functional, cell-based
[28] = test system: Caov-3 cell line; assay: Antimetastasis activity against human Caov3 cells xenografted in BALB/c nude mouse assessed as reduction in vWF expression in lungs lesions at 5 mg/kg, ip incubated for 1 hr post tumor implantation and measured after 20 days by DAB and hematoxylin staining based immunohistochemical analysis; assay type: functional, organism-based

Fc1ccccc1-n1cc(COCc2ccccc2S)nn1 was tested, and the Activity [1] was “inactive”, the inhibition [2] was “Active” and the Activity [3] was “Active”. The Activity [4] was 8%, the Activity [5] was 8% and the “growth inhibition (GI)” value [6] was “inactive”. The Activity [7] was 21.54%, the inhibition [8] was “inactive” and the Activity [9] was 61.63%. For the same molecule, the Activity [10] was “inactive”, the Activity [11] was “inactive” and the Activity [12] was 7%. For the same molecule, the Activity [13] was 20.07%, the Activity [14] was 14.61% and the inhibition [15] was “Active”. The Activity [16] was 8.67%, the inhibition of growth at 2 µM [17] was 27% and the Activity [18] was 84.54%. For the same molecule, the Activity [19] was “inactive”, the Activity [20] was 64.57% and the Activity [21] was 1.26%. The Activity [22] was 39.14%, the Activity [23] was “inactive” and the inhibition [24] was “Active”. The Activity [25] was 67.76%, the Activity [26] was 18.08% and the “growth inhibition (GI)” value [27] was “inactive”. For the same molecule, the Activity [28] was “inactive”.
